Key:
Conditions in all cases: 72 h
Calu-3 [1] = experiment: cell viability relative to DMSO; higher = less toxic
Caco-2 [2] = experiment: as above
Vero E6 [3] = experiment: as above
U2OS [4] = experiment: as above
Calu-3 [5] = experiment: drug sensitivity score (DSS) for viability; higher = more toxic; extreme values may be limits of the assay
Caco-2 [6] = experiment: as above
Vero E6 [7] = experiment: as above
U2OS [8] = experiment: as above
Calu-3 [9] = experiment: relative viability EC50 (midpoint between 100% and the lowest measured viability); higher = less toxic
Caco-2 [10] = experiment: as above
Vero E6 [11] = experiment: as above
U2OS [12] = experiment: as above
HepG2 [13] = experiment: cell viability relative to DMSO; higher = less toxic
HepG2 [14] = experiment: drug sensitivity score (DSS) for viability; higher = more toxic; extreme values may be limits of the assay
HepG2 [15] = experiment: relative viability EC50 (midpoint between 100% and the lowest measured viability); higher = less toxic

CN1CCN(C2=Cc3ccccc3Oc3ccc(Cl)cc32)CC1 [2-CMDO]
cell viability (Calu-3 [1]; 1 nM): 103% | cell viability (Calu-3 [1]; 10 nM): 102% | cell viability (Calu-3 [1]; 100 nM): 98.2% | cell viability (Calu-3 [1]; 1000 nM): 112% | cell viability (Calu-3 [1]; 10000 nM): 95.6% | cell viability (Caco-2 [2]; 1 nM): 107% | cell viability (Caco-2 [2]; 10 nM): 90.6% | cell viability (Caco-2 [2]; 100 nM): 99.7% | cell viability (Caco-2 [2]; 1000 nM): 103% | cell viability (Caco-2 [2]; 10000 nM): 92.3% | cell viability (Vero E6 [3]; 1 nM): 102% | cell viability (Vero E6 [3]; 10 nM): 99.5% | cell viability (Vero E6 [3]; 100 nM): 103% | cell viability (Vero E6 [3]; 1000 nM): 103% | cell viability (Vero E6 [3]; 10000 nM): 93.3% | cell viability (U2OS [4]; 1 nM): 101% | cell viability (U2OS [4]; 10 nM): 98.6% | cell viability (U2OS [4]; 100 nM): 96.7% | cell viability (U2OS [4]; 1000 nM): 100% | cell viability (U2OS [4]; 10000 nM): 90.1% | drug sensitivity score (Calu-3 [5]): 0 | drug sensitivity score (Caco-2 [6]): 0 | drug sensitivity score (Vero E6 [7]): 0 | drug sensitivity score (U2OS [8]): 0 | relative viability EC50 (Calu-3 [9]): > 10 µM | relative viability EC50 (Caco-2 [10]): > 10 µM | relative viability EC50 (Vero E6 [11]): > 10 µM | relative viability EC50 (U2OS [12]): > 10 µM

CCc1cnc(N2CCC(c3nc(COc4ccc(-n5cnnn5)cc4)cs3)CC2)nc1 [MBX-2982]
cell viability (Calu-3 [1]; 1 nM): 97.5% | cell viability (Calu-3 [1]; 10 nM): 92% | cell viability (Calu-3 [1]; 100 nM): 109% | cell viability (Calu-3 [1]; 1000 nM): 102% | cell viability (Calu-3 [1]; 10000 nM): 103% | cell viability (Caco-2 [2]; 1 nM): 95.8% | cell viability (Caco-2 [2]; 10 nM): 107% | cell viability (Caco-2 [2]; 100 nM): 86.9% | cell viability (Caco-2 [2]; 1000 nM): 96.1% | cell viability (Caco-2 [2]; 10000 nM): 67.5% | cell viability (Vero E6 [3]; 1 nM): 102% | cell viability (Vero E6 [3]; 10 nM): 106% | cell viability (Vero E6 [3]; 100 nM): 105% | cell viability (Vero E6 [3]; 1000 nM): 97.2% | cell viability (Vero E6 [3]; 10000 nM): 80.4% | cell viability (HepG2 [13]; 1 nM): 97.4% | cell viability (HepG2 [13]; 10 nM): 94.6% | cell viability (HepG2 [13]; 100 nM): 93.2% | cell viability (HepG2 [13]; 1000 nM): 99.7% | cell viability (HepG2 [13]; 10000 nM): 36% | cell viability (U2OS [4]; 1 nM): 103% | cell viability (U2OS [4]; 10 nM): 94.8% | cell viability (U2OS [4]; 100 nM): 96.7% | cell viability (U2OS [4]; 1000 nM): 96.2% | cell viability (U2OS [4]; 10000 nM): 93.7% | drug sensitivity score (Calu-3 [5]): 0 | drug sensitivity score (Caco-2 [6]): 2.1 | drug sensitivity score (Vero E6 [7]): 0.9 | drug sensitivity score (HepG2 [14]): 3.5 | drug sensitivity score (U2OS [8]): 0 | relative viability EC50 (Calu-3 [9]): > 10 µM | relative viability EC50 (Vero E6 [11]): > 10 µM | relative viability EC50 (HepG2 [15]): 3.13 µM | relative viability EC50 (U2OS [12]): > 10 µM

Oc1ccc(C2CNCCc3c2cc(O)c(O)c3Cl)cc1 (centres undefined) [fenoldopam]
cell viability (Calu-3 [1]; 1 nM): 96.5% | cell viability (Calu-3 [1]; 10 nM): 110% | cell viability (Calu-3 [1]; 100 nM): 105% | cell viability (Calu-3 [1]; 1000 nM): 109% | cell viability (Calu-3 [1]; 10000 nM): 107% | cell viability (Caco-2 [2]; 1 nM): 96% | cell viability (Caco-2 [2]; 10 nM): 87% | cell viability (Caco-2 [2]; 100 nM): 80.6% | cell viability (Caco-2 [2]; 1000 nM): 76.6% | cell viability (Caco-2 [2]; 10000 nM): 73.7% | cell viability (Vero E6 [3]; 1 nM): 101% | cell viability (Vero E6 [3]; 10 nM): 99.4% | cell viability (Vero E6 [3]; 100 nM): 97.3% | cell viability (Vero E6 [3]; 1000 nM): 103% | cell viability (Vero E6 [3]; 10000 nM): 96.7% | cell viability (HepG2 [13]; 1 nM): 104% | cell viability (HepG2 [13]; 10 nM): 102% | cell viability (HepG2 [13]; 100 nM): 95.3% | cell viability (HepG2 [13]; 1000 nM): 105% | cell viability (HepG2 [13]; 10000 nM): 94.8% | cell viability (U2OS [4]; 1 nM): 103% | cell viability (U2OS [4]; 10 nM): 101% | cell viability (U2OS [4]; 100 nM): 99.1% | cell viability (U2OS [4]; 1000 nM): 102% | cell viability (U2OS [4]; 10000 nM): 103% | drug sensitivity score (Calu-3 [5]): 0 | drug sensitivity score (Caco-2 [6]): 6.6 | drug sensitivity score (Vero E6 [7]): 0 | drug sensitivity score (HepG2 [14]): 0 | drug sensitivity score (U2OS [8]): 0 | relative viability EC50 (Calu-3 [9]): > 10 µM | relative viability EC50 (Vero E6 [11]): > 10 µM | relative viability EC50 (HepG2 [15]): > 10 µM | relative viability EC50 (U2OS [12]): > 10 µM

C[C@H](NC(=O)Cc1cc(F)cc(F)c1)C(=O)N[C@H](C(=O)OC(C)(C)C)c1ccccc1 [DAPT]
cell viability (Calu-3 [1]; 1 nM): 105% | cell viability (Calu-3 [1]; 10 nM): 100% | cell viability (Calu-3 [1]; 100 nM): 112% | cell viability (Calu-3 [1]; 1000 nM): 91.1% | cell viability (Calu-3 [1]; 10000 nM): 103% | cell viability (Caco-2 [2]; 1 nM): 108% | cell viability (Caco-2 [2]; 10 nM): 109% | cell viability (Caco-2 [2]; 100 nM): 116% | cell viability (Caco-2 [2]; 1000 nM): 99.8% | cell viability (Caco-2 [2]; 10000 nM): 96.1% | cell viability (Vero E6 [3]; 1 nM): 98.3% | cell viability (Vero E6 [3]; 10 nM): 108% | cell viability (Vero E6 [3]; 100 nM): 103% | cell viability (Vero E6 [3]; 1000 nM): 105% | cell viability (Vero E6 [3]; 10000 nM): 102% | cell viability (U2OS [4]; 1 nM): 106% | cell viability (U2OS [4]; 10 nM): 106% | cell viability (U2OS [4]; 100 nM): 105% | cell viability (U2OS [4]; 1000 nM): 97.7% | cell viability (U2OS [4]; 10000 nM): 101% | drug sensitivity score (Calu-3 [5]): 0 | drug sensitivity score (Caco-2 [6]): 0 | drug sensitivity score (Vero E6 [7]): 0 | drug sensitivity score (U2OS [8]): 0 | relative viability EC50 (Calu-3 [9]): > 10 µM | relative viability EC50 (Caco-2 [10]): > 10 µM | relative viability EC50 (Vero E6 [11]): > 10 µM | relative viability EC50 (U2OS [12]): > 10 µM
